Experiment in all cases: NCI tumour cell line growth inhibition, 48 h
The subject of assay [1] is HOP-62 NSCLC.
Assay [2] has as its system M19-MEL melanoma.
Assay [3] concerns NCI-H460 lung.
Assay [4] concerns HCC-2998 colon.
In assay [5] the test system is RXF 393 renal.
Assay [6] relates to MDA-MB-231 breast.
Assay [7] has as its system MDA-MB-435.
Assay [8] deals with PC-3 prostate.
In assay [9] the test system is T-47D breast.

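Cultured in 96-well plates, cells were exposed to test compound for 48 hours across five concentrations. GI50: concentration for 50% inhibition of growth. TGI: total growth inhibition.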

Take `O=[N+]([O-])c1nccn1COCCBr`: the TGI in assay [1], in assay [2] and in assay [3] was greater than 100 µM each time.
As to `CN1C(=O)C(Cl)(C(Cl)(Cl)S(=O)(=O)O)C(=O)c2ccccc21` (configuration not stated), the TGI in assay [4], in assay [1], in assay [2], in assay [3] and in assay [5] was greater than 100 µM throughout.
As to `CC(C)(C)NC(=O)[C@H]1C[C@H]2CCCC[C@H]2CN1C[C@@H](O)[C@H](Cc1ccccc1)NC(=O)[C@H](CC(N)=O)NC(=O)c1ccc2ccccc2n1`, the GI50 in [4] was 13.4 µM; in [1], 15.2 µM; in [6], 13 µM; in assay [7] it was 11.9 µM; in [3], 12.7 µM; in assay [8], 7.17 µM. The GI50 was 12.5 µM in assay [5] and 13.8 µM in assay [9]. Further, the TGI was 26.8 µM in assay [4]; 30.7 µM in assay [1]; 26.7 µM in [6]; 32.8 µM in assay [7]; greater than 51.4 µM in assay [3]; 26.8 µM in [8]. Further, the TGI stood at 32.1 µM in [5] and 40.9 µM in assay [9].
For `CC(=O)Nc1ccc(S(=O)(=O)NNC(=O)c2cccnc2Nc2ccc(Cl)cc2)cc1`, the GI50 is 8.38 µM in assay [4]; greater than 100 µM in [1]; 41.6 µM in assay [6]; 3.2 µM in assay [7]; 4.69 µM in assay [3]; 29.2 µM in [8]. The results for the GI50 in [5] and in assay [9] were 37.3 µM and 6.28 µM, respectively. Moreover, the TGI in [1], in assay [6], in assay [7], in [3], in [8] and in assay [5] was greater than 100 µM in each case. Moreover, in assay [9], the TGI is greater than 100 µM.
For `C=C=C(C(=O)OC)S(=O)c1ccc([N+](=O)[O-])cc1[N+](=O)[O-]` (configuration not stated), the TGI was 31.2 µM in [4]; greater than 82.5 µM in assay [1]; 62 µM in assay [2]; greater than 91.2 µM in assay [3]; greater than 68 µM in [5].
With `O=C1c2ccccc2-n2c1nc1ccccc1c2=O`, the TGI in assay [4] is greater than 90.4 µM; in assay [1], 41 µM; in [6], greater than 100 µM; in [7], 3.44 µM; in assay [3] it was 12 µM; in assay [8], greater than 60.1 µM. The TGI is greater than 81.6 µM in [5] and 87.4 µM in assay [9].
Regarding `CCCCCCN(CCCCCC)CC(O)c1ccc2c3c(cccc13)CC2` (configuration not stated), the GI50 in assay [4] was 3.07 µM; in assay [1] it was 12.1 µM; in assay [6] it was 6.86 µM; in assay [7], 3.11 µM; in assay [3], 3.36 µM; in [8], 10.9 µM. Moreover, the GI50 in assay [5] was 2.39 µM; in assay [9], 3.28 µM. For the same compound, the TGI in [4] was determined as 9.67 µM; in assay [1], 24.7 µM; in assay [6], 21.3 µM; in assay [7] it was 15.2 µM; in assay [3], 17 µM; in [8] it was 28.7 µM. Besides, the TGI was 7.21 µM in [5] and 16.6 µM in assay [9].
Consider `COC(=O)CCC1=C(C)/C(=C/c2[nH]c(-c3ccc[nH]3)cc2OC)N=C1C`, for which the GI50 is 1.37 µM in assay [4]; 0.454 µM in assay [1]; 0.223 µM in assay [6]; 0.454 µM in assay [7]; 0.441 µM in assay [3]; 0.564 µM in [8]. Moreover, the results for the GI50 in assay [5] and in [9] were 0.352 µM and 0.378 µM, respectively. In addition, the TGI in assay [4] amounted to 6.73 µM; in [1], 1.53 µM; in assay [6], 1.35 µM; in [7], 2.5 µM; in assay [3], 4.88 µM; in assay [8] it was 12 µM. In addition, the TGI in assay [5] amounted to 2.07 µM; in assay [9], 1.86 µM.
For `CCOC(=O)C(/C=N\C(=S)Nc1ccc(OCC)cc1)=C(/O)c1ccccc1`, the TGI in assay [4], in assay [1], in assay [6], in assay [7], in assay [3] and in assay [8] was greater than 100 µM throughout. The TGI in assay [5] and in [9] was greater than 100 µM in each case.
Regarding `COc1cc2nc(-c3ccc(C(F)(F)F)cc3)cc(OCCCN3CCCCC3)c2cc1OC`, the GI50 was 1.28 µM in assay [4]; 0.947 µM in assay [1]; 0.536 µM in assay [6]; 1.23 µM in [7]; 0.595 µM in [3]; 1.34 µM in assay [8]. For the same compound, the GI50 was 1.09 µM in assay [5] and 0.454 µM in assay [9]. Further, the TGI in assay [4] was determined as 5.72 µM; in assay [1], 13.6 µM; in assay [6] it was 4.04 µM; in assay [7] it was 7.08 µM; in assay [3] it was 11.9 µM; in [8], 11.2 µM. Moreover, the figures for the TGI in assay [5] and in [9] were 4.26 µM and 22.4 µM, respectively.
With `CN(C)C(=O)O[C@@H]1CN[C@@H](C#Cc2cc3ncnc(Nc4ccc(OCc5cccc(F)c5)c(Cl)c4)c3s2)C1`, the GI50 was 14.1 µM in assay [4]; greater than 25 µM in assay [1]; 6.6 µM in assay [6]; greater than 25 µM in assay [7]; 8.33 µM in [3]; 8.53 µM in [8]. Besides, the GI50 was greater than 20.4 µM in assay [5] and 11.2 µM in [9]. The TGI is greater than 25 µM in assay [4]; greater than 25 µM in [1]; greater than 20 µM in assay [6]; greater than 25 µM in assay [7]; greater than 25 µM in assay [3]; greater than 25 µM in [8]. Besides, the TGI in [5] and in assay [9] was greater than 25 µM throughout.
For `Cc1nc(C(N)=S)sc1C(=O)C/C(=N/N)C(=O)Nc1cccc(Cl)c1C`, the TGI in [4], in assay [1], in assay [6], in [7], in [3] and in assay [8] was greater than 100 µM in each case. In addition, the TGI in assay [5] and in [9] was greater than 100 µM throughout.

Values taken from PubChem BioAssay (NCI).
